Laboratory results reported in PMC3855985, “Simultaneous Determination of Volatile Constituents from Acorus tatarinowii Schott in Rat Plasma by Gas Chromatography-Mass Spectrometry with Selective Ion Monitoring and Application in Pharmacokinetic Study” (Journal of Analytical Methods in Chemistry, 2013).

Assay: Pharmacokinetic study in rats after single oral dose of volatile oil of Acorus tatarinowii Schott (GC-MS/SIM of plasma)
Conditions: for CL / Vd / AUC(0~t) / AUC(0~∞) / C max / T1/2 α / T 1/2β / T max: rats (n = 6); for CL / Vd / Compartment model of the plasma profile / AUC(0~t) / AUC(0~∞) / C max / T1/2 α / T 1/2β / T max: single oral dose 0.2 g/kg volatile oil of Acorus tatarinowii Schott; for Compartment model of the plasma profile: rats
Protocol: GC-MS analyses were performed with a Shimadzu GC-MS QP2010 (Kyoto, Japan). Chromatographic separation was achieved on a Restek Rxi-5MS capillary column (30 m × 0.32 mm I.D., 0.25 μm film thickness, Shimadzu, Japan) using nitrogen as carrier gas at 2 mL/min in a constant flow rate mode. […] The temperatures of injector, interface, and ion source were 250, 280, and 230°C, respectively. Detection was operated by selected ionmonitoring (SIM) mode (70 eV, electron impact mode).
In the SIM mode, the peaks of α-asarone, β-asarone, methyl eugenol, and IS in plasma were identified by matching the retention time and the abundant ions of m/z 178 for methyl eugenol, m/z 208 for α-asarone, β-asarone, and m/z 144 for IS. The injection volume was 1.0 μL. Data were collected using the GC-MS solution (Kyoto, Japan).
Six healthy male Sprague-Dawley rats, weighing 250–280 g, were supplied by the Guangdong Laboratory Animals Monitoring Institute (Guangdong, China). The rats were housed in a standard animal holding room with normal access to food and water and 12 h light cycle. The animals were fasted overnight prior to dosing, with water allowance ad libitum. All animal experiments were carried out according to the Guidelines for the Care and Use of Laboratory Animals and were approved by the Animal Experimentation Ethics Committee.
In a 1.5 mL Eppendorf tube, 100 μL of plasma was spiked with 10 μL of 2.0 μg/mL IS solution. An aliquot of 40 μL 10% (V : V) trichloracetic acid water solution and 600 μL acetonitrile was used to remove the proteins in the plasma through vortexed for 2 min followed by the centrifugation of 10 min at 8000 rpm. The supernatant was collected in a clean tube for next use, while the residue was extracted by 300 μL acetic ether for three times. The acetic ether layer and the above supernatant were collected together and evaporated to dryness under a stream of nitrogen. The residue was dissolved in 100 μL of acetone for further GC-MS analysis.
Volatile oil of Acorus tatarinowii Schott was administered orally to the rat in a single dose of 0.2 g/kg. Blood samples were collected in heparinized tube at 0, 5, 10, 20, 30, 60, 90, 120, 180, 300, 480, 720, 960, and 1200 min after dose. All the samples were extracted and analyzed under the proposed condition.
The Microsoft Excel Program Drug and Statistics 2.0 (T.C.M. Shanghai, China) was employed to process and calculate the pharmacokinetic parameters. The parameters of the area under curve (AUC), the maximum plasma concentration (C max) and the corresponding time (t max), the half-life of absorption (t 1/2), and so forth were used to decrypt the pharmacokinetic properties of α-asarone, β-asarone, and methyl eugenol. Statistical analysis of the biological data was performed by the Student's t-test. All results were expressed as arithmetic mean ± standard deviation (SD).

[1] = male, Sprague-Dawley, rat, plasma, po, 0.2 g/kg

Row | SMILES | AUC(0-inf) [1] [ng·h/mL] | AUC(0-t) [1] [ng·h/mL] | Cmax [1] [ng/mL] | Tmax [1] [min] | half-life [1] [min] | CL (plasma) [mL/min/kg] | Vd (plasma) [L/kg] | Compartment model of the plasma profile | AUC(0~t) (plasma) [mg·min/L] | AUC(0~∞) (plasma) [mg·min/L] | C max (plasma) [ng/mL] | T1/2 α (plasma) [min] | T 1/2β (plasma) [min] | T max (plasma) [min]
1 | C=CCc1ccc(OC)c(OC)c1 [Methyl Eugenol, Methyl eugenol] | 41.5 | 35.5 | 21 ± 1 | 10 | 67.7 ± 3.32 | 0.40 ± 0.04 | 39.35 ± 4.08 | one-compartment open models |  |  |  |  |  | 
2 | C/C=C/c1cc(OC)c(OC)cc1OC [α-Asarone] |  |  |  |  |  | 0.60 ± 0.44 | 22.93 ± 16.11 | two-compartment open model | 47.51 ± 28.49 | 56.67 ± 35.91 | 530 ± 240 | 58.92 ± 20.80 | 69.28 ± 6.12 | 11.25 ± 6.29
3 | C/C=C\c1cc(OC)c(OC)cc1OC [β-Asarone, β-asarone] |  |  |  |  |  | 0.38 ± 0.05 | 149.87 ± 90.78 | two-compartment open model | 368.43 ± 40.05 | 407.52 ± 55.78 | 2470 ± 580 | 54.39 ± 29.46 | 69.30 ± 0.21 | 13.75 ± 11.09
